Assay results published in patent publication US5527781A, “4-O-(aminoglycosyl)- or 4,6-di-O-(aminoglycosyl)-2,5-dideoxy-5,5-difluorostreptamine derivatives” (Zaidan Hojin Biseibutsu Kagaku Kenkyu Kai, priority 1990, dated 1996).
≈ marks a conversion by molar mass, not a printed value. Read-outs that look alike come from different tables or passages of the source.

Experiments:
bacteria = settings: literature / earlier filings; cited from earlier work
[1] = system: Corynebacterium bovis 1810; experiment: MIC, standard serial dilution method; type: cell-based; settings: Mueller-Hinton agar, 37° C
[2] = system: Pseudomonas aeruginosa GN 315; experiment: MIC, standard serial dilution method; type: cell-based; settings: GN315; Pseudomonas aeruginosa GN 315; resistance mechanism AAC(6'); Mueller-Hinton agar, 37° C; read-out: MIC
Escherichia coli K-12 R5 = experiment: microbe, parasite or virus in culture; type: cell-based; settings: K12R5
Escherichia coli K-12 = experiment: MIC, standard serial dilution method; type: cell-based; settings: K12
Mycobacterium 607 = experiment: MIC, standard serial dilution method; type: cell-based; settings: Mueller-Hinton agar, 37° C
Escherichia coli JR225 = experiment: microbe, parasite or virus in culture; type: cell-based; settings: resistance mechanism AAC(3), Mueller-Hinton agar, 37° C
[3] = system: Klebsiella pneumoniae 22#3038; experiment: MIC, standard serial dilution method; type: cell-based; settings: resistance mechanism APH(3')-II, ANT(2"), Mueller-Hinton agar, 37° C
in vivo = settings: mouse, iv, pH 7
Source text: Further, in order to estimate acute toxicity of the compound of the general formula (I) according to this invention, some examples of the compounds of this invention were independently dissolved in water to prepare aqueous solutions (as adjusted to pH 7 by addition of hydrochloric acid). […] The tested compounds of this invention are expressed by the same abbreviations as in Table 1. […] The comparative compounds as tested are also expressed by the same abbreviations as in Table 1.

[4] = system: Staphylococcus aureus Ap01; experiment: MIC, standard serial dilution method; type: cell-based; settings: resistance mechanism ANT(4'), Mueller-Hinton agar, 37° C
[5] = system: Staphylococcus aureus 209P; experiment: MIC, standard serial dilution method; type: cell-based; settings: Mueller-Hinton agar, 37° C
Proteus rettgeri GN 311 = experiment: MIC, standard serial dilution method; type: cell-based; settings: Providencia rettgeri, GN311
[6] = system: Escherichia coli JR66/W677; experiment: microbe, parasite or virus in culture; type: cell-based; settings: resistance mechanism APH(3')-II, ANT(2"), Mueller-Hinton agar, 37° C
[7] = system: Escherichia coli K-12 ML 1629; experiment: microbe, parasite or virus in culture; type: cell-based; settings: K12ML1629
[8] = system: Pseudomonas aeruginosa A3; experiment: MIC, standard serial dilution method; type: cell-based; settings: Mueller-Hinton agar, 37° C
Bacillus subtilis PCI219 = experiment: MIC, standard serial dilution method; type: cell-based; settings: Mueller-Hinton agar, 37° C
Serratia marcescens = experiment: MIC, standard serial dilution method; type: cell-based; settings: Mueller-Hinton agar, 37° C
[9] = system: Escherichia coli K-12 LA 290 R55; experiment: microbe, parasite or virus in culture; type: cell-based; settings: K12LA290R55
Providencia sp. Pv 16 = experiment: MIC, standard serial dilution method; type: cell-based; settings: SP.PV16, resistance mechanism AAC(2'), Mueller-Hinton agar, 37° C
[10] = Escherichia coli K-12 R5, resistance mechanism AAC(6'), Mueller-Hinton agar, 37° C
[11] = Escherichia coli K-12, Mueller-Hinton agar, 37° C, read-out: MIC
[12] = Proteus rettgeri GN 311, Mueller-Hinton agar, 37° C, read-out: MIC
[13] = Escherichia coli K-12 LA 290 R55, resistance mechanism ANT(2"), Mueller-Hinton agar, 37° C
[14] = Escherichia coli K-12 ML 1629, resistance mechanism APH(3')-I, Mueller-Hinton agar, 37° C, read-out: MIC

Row | SMILES | MIC [1] [µg/mL] | MIC [2] [µg/mL] | MIC (Escherichia coli K-12 R5; [10]) [µg/mL] | MIC (Escherichia coli K-12; [11]) [µg/mL] | MIC (Mycobacterium 607) [µg/mL] | MIC (Escherichia coli JR225) [µg/mL] | MIC [3] [µg/mL] | LD50 (in vivo) [mg/kg] | MIC [4] [µg/mL] | MIC [5] [µg/mL] | MIC (Proteus rettgeri GN 311; [12]) [µg/mL] | MIC [6] [µg/mL] | MIC ([7]; Escherichia coli) [µg/mL] | MIC [8] [µg/mL] | MIC (Bacillus subtilis PCI219) [µg/mL] | MIC (Serratia marcescens) [µg/mL] | MIC [9, 13] [µg/mL] | MIC (Providencia sp. Pv 16) [µg/mL] | MIC [7, 14] [µg/mL] | also measured
1 | NC[C@H]1O[C@H](O[C@H]2[C@H](O)[C@@H](O[C@H]3O[C@H](CO)[C@@H](O)[C@H](N)[C@H]3O)[C@H](N)C[C@@H]2N)[C@H](O)[C@@H](F)[C@@H]1O [3'-deoxy-3'-fluorokanamycin A] | – | – | – | – | – | – | – | – | – | – | – | – | – | – | – | – | – | – | – | antibacterial activity compared with parent (e.g. kanamycin A) (bacteria): improved antibacterial activities, as compared to those of their corresponding parent compounds
2 | CCN[C@@H]1C[C@H](N)[C@@H](O[C@H]2OC(CN)=CC[C@H]2N)C(F)(F)[C@H]1O[C@H]1OC[C@](C)(O)[C@H](NC)[C@H]1O [5FF-Netilmicin, 5-deoxy-5,5-difluoronetilmicin] | 1.56 (≈ 3.15 µM) | > 100 | 50 (≈ 101 µM) | < 0.2 | 1.56 (≈ 3.15 µM) | 1.56 (≈ 3.15 µM) | 1.56 (≈ 3.15 µM) | 47 | 12.5 (≈ 25.2 µM) | 3.12 (≈ 6.3 µM) | 1.56 (≈ 3.15 µM) | 0.78 (≈ 1.57 µM) | 0.78 (≈ 1.57 µM) | 1.56 (≈ 3.15 µM) | 0.39 (≈ 0.787 µM) | 6.25 (≈ 12.6 µM) | 0.39 (≈ 0.787 µM) | 12.5 (≈ 25.2 µM) | – | –
3 | NCC[C@H](O)C(=O)N[C@@H]1C[C@H](N)[C@@H](O[C@H]2O[C@H](CN)[C@@H](O)[C@H](O)[C@H]2O)C(F)(F)[C@H]1O[C@H]1O[C@H](CO)[C@@H](O)[C@H](N)[C@H]1O [Compound 5FF-amikacin, 1-N-[(S)-4-amino-2-hydroxybutyryl]-5-deoxy-5,5-difluorokanamycin A] | 3.12 (≈ 5.15 µM) | > 100 | 25 (≈ 41.3 µM) | 1.56 (≈ 2.58 µM) | 3.12 (≈ 5.15 µM) | 0.39 (≈ 0.644 µM) | 6.25 (≈ 10.3 µM) | > 300 | > 100 | 3.12 (≈ 5.15 µM) | 1.56 (≈ 2.58 µM) | 3.12 (≈ 5.15 µM) | – | 3.12 (≈ 5.15 µM) | 1.56 (≈ 2.58 µM) | 6.25 (≈ 10.3 µM) | 3.12 (≈ 5.15 µM) | 3.12 (≈ 5.15 µM) | 3.12 (≈ 5.15 µM) | –
4 | NC[C@@H]1CC[C@@H](N)[C@@H](O[C@@H]2[C@@H](N)C[C@@H](N)[C@H](O[C@H]3O[C@H](CO)[C@@H](O)[C@H](N)[C@H]3O)C2(F)F)O1 [Compound 5FF-DKB, 5,3',4'-trideoxy-5,5-difluorokanamycin B] | 1.56 (≈ 3.31 µM) | > 100 | 100 (≈ 212 µM) | 0.39 (≈ 0.827 µM) | 1.56 (≈ 3.31 µM) | 3.12 (≈ 6.62 µM) | 1.56 (≈ 3.31 µM) | 250 | 3.12 (≈ 6.62 µM) | 0.78 (≈ 1.65 µM) | 0.39 (≈ 0.827 µM) | 1.56 (≈ 3.31 µM) | 0.78 (≈ 1.65 µM) | 0.39 (≈ 0.827 µM) | 0.39 (≈ 0.827 µM) | 12.5 (≈ 26.5 µM) | 1.56 (≈ 3.31 µM) | 12.5 (≈ 26.5 µM) | – | –
5 | CN[C@@H]1[C@@H](O)[C@@H](O[C@@H]2[C@@H](O)[C@H](O[C@H]3O[C@H]([C@@H](C)NC)CC[C@H]3N)[C@@H](N)C[C@H]2N)OC[C@]1(C)O [Genta-C1, gentamicin C1, reference compound] | 0.39 (≈ 0.817 µM) | 6.25 (≈ 13.1 µM) | – | 0.2 (≈ 0.419 µM) | 3.12 (≈ 6.53 µM) | 25 (≈ 52.3 µM) | 12.5 (≈ 26.2 µM) | ~70 | 0.78 (≈ 1.63 µM) | < 0.2 | – | 12.5 (≈ 26.2 µM) | – | 0.78 (≈ 1.63 µM) | < 0.2 | 0.78 (≈ 1.63 µM) | 12.5 (≈ 26.2 µM) | 25 (≈ 52.3 µM) | 0.39 (≈ 0.817 µM) | MIC (Escherichia coli K-12 R5; Escherichia coli): 0.78 µg/mL (≈ 1.63 µM); MIC (Proteus rettgeri GN 311): 0.78 µg/mL (≈ 1.63 µM)
6 | CN[C@@H]1[C@@H](O)[C@@H](O[C@H]2[C@H](N)C[C@H](N)[C@@H](O[C@H]3O[C@H]([C@@H](C)NC)CC[C@H]3N)C2(F)F)OC[C@]1(C)O [Compound 5FF-Genta-C1, 5-deoxy-5,5-difluorogentamicin C1] | 3.12 (≈ 6.27 µM) | 25 (≈ 50.2 µM) | 1.56 (≈ 3.14 µM) | 1.56 (≈ 3.14 µM) | 1.56 (≈ 3.14 µM) | 12.5 (≈ 25.1 µM) | 3.12 (≈ 6.27 µM) | ~200 | 12.5 (≈ 25.1 µM) | 1.56 (≈ 3.14 µM) | 1.56 (≈ 3.14 µM) | 0.78 (≈ 1.57 µM) | – | 6.25 (≈ 12.6 µM) | 1.56 (≈ 3.14 µM) | 1.56 (≈ 3.14 µM) | – | 25 (≈ 50.2 µM) | 1.56 (≈ 3.14 µM) | MIC ([9]; Escherichia coli): 0.78 µg/mL (≈ 1.57 µM)
7 | NCC[C@H](O)C(=O)N[C@@H]1C[C@H](N)[C@@H](O[C@H]2O[C@H](CN)[C@@H](O)C[C@H]2N)C(F)(F)[C@H]1O[C@H]1O[C@H](CO)[C@@H](O)[C@H](N)[C@H]1O [Compound 5FF-TOB-AHB, 1-N-[(S)-4-amino-2-hydroxybutyryl]-5-deoxy-5,5-difluorotobramycin] | < 0.2 | 6.25 (≈ 10.6 µM) | 3.12 (≈ 5.3 µM) | < 0.2 | 0.39 (≈ 0.663 µM) | < 0.2 | 0.78 (≈ 1.33 µM) | > 300 | 3.12 (≈ 5.3 µM) | 0.39 (≈ 0.663 µM) | 0.39 (≈ 0.663 µM) | 0.39 (≈ 0.663 µM) | – | 0.78 (≈ 1.33 µM) | < 0.2 | 1.56 (≈ 2.65 µM) | < 0.2 | 0.78 (≈ 1.33 µM) | 0.39 (≈ 0.663 µM) | –
8 | CN[C@@H]1[C@@H](O)[C@@H](O[C@H]2[C@H](N)C[C@H](N)[C@@H](O[C@H]3O[C@H]([C@@H](C)N)CC[C@H]3N)C2(F)F)OC[C@]1(C)O [Compound 5FF-Genta-C2, 5-deoxy-5,5-difluorogentamicin C2] | 0.78 (≈ 1.61 µM) | 25 (≈ 51.7 µM) | 1.56 (≈ 3.23 µM) | – | 0.78 (≈ 1.61 µM) | 6.25 (≈ 12.9 µM) | 1.56 (≈ 3.23 µM) | ~230 | 6.25 (≈ 12.9 µM) | 0.78 (≈ 1.61 µM) | 0.78 (≈ 1.61 µM) | 3.12 (≈ 6.45 µM) | 0.78 (≈ 1.61 µM) | 1.56 (≈ 3.23 µM) | 0.2 (≈ 0.414 µM) | 0.78 (≈ 1.61 µM) | 3.12 (≈ 6.45 µM) | 6.25 (≈ 12.9 µM) | – | MIC (Escherichia coli K-12; Escherichia coli): 0.78 µg/mL (≈ 1.61 µM)
